The text below walks through data of patent publication US11111248B2, “Crystal form of 2-(6-methyl-pyridin-2-yl)-3-yl-[6-amido-quinolin-4-yl]-5,6-dihydro-4H-pyrrolo[1,2-B]pyrazole, preparation method therefor and pharmaceutical composition thereof” (Hangzhou SoliPharma Co., Ltd., priority 2017, dated 2021).

Converted amounts (≈) assume the structure as drawn. “Also recorded” adds a separate entry of the source.

What all share (format): physicochemical
Data set [1] can be described thus: water solubility test. To be noted: for Solubility: 25° C.±2° C., visual clarity, 5 mg sample, max 100 mL water. Here is the method: Accurately weighed 5 mg samples in a 200 mL flask which was in a water bath with temperature 25° C.±2° C., added water in a geometric fashion the flask, stirred (about 200 r/min), and observed by naked eyes to see if it was clear. Water was added every 3 mins, maximum water amount 100 mL.

Data set [2] can be described thus: isothermal sorption (dynamic vapor sorption). To be noted: 0% RH to 80% RH; for hygroscopicity: isothermal sorption. Here is the method: Dynamic vapor sorption data and isothermal sorption data were collected on TA Instruments Q5000 TGA. Method: A sample of 1 to 10 mg was placed in a platinum pan; the weight change of the sample during the change in relative humidity from 0% to 80% to 0% was measured.

The nature of data set [3]: thermal phase stability from DSC and TGA thermograms. Particulars: for phase transformation on heating: DSC and TGA thermograms. How it is done:
[…] data were collected on TA Instruments Q200 DSC. Method: A sample of 1 to 10 mg was placed in an aluminum pan with a pin-holed lid, and the sample was heated from room temperature to 200° C. at a heating rate of 10° C./min under the protection of dry nitrogen purge at 40 mL/min.
Thermogravimetric analysis data were collected on TA Instruments Q500 TGA. Method: A sample of 5 to 15 mg was placed in a platinum pan, using High Resolution™, the sample was heated from room temperature to 350° C. at a heating rate of 10° C./min under the protection of dry nitrogen purge at 40 mL/min.

For `Cc1cccc(-c2nn3c(c2-c2ccnc4ccc(C(N)=O)cc24)CCC3)n1` [LY2157299 Form 1, 2-(6-methyl-pyridin-2-yl)-3-(6-amido-quinolin-4-yl)-5,6-dihydro-4h-pyrrolo[1,2-b]pyrazole], in data set [1], the “water solubility” value is recorded as “about 160 ug/mL” and the Solubility came to 160 µg/mL (≈ 433 µM). Further, in data set [2], the “hygroscopicity” value is “non-hygroscopic”. The “phase transformation on heating” value in data set [3] is on record as “no phase transformation before melting”.

With `Cc1cccc(-c2nn3c(c2-c2ccnc4ccc(C(N)=O)cc24)CCC3)n1` [LY2157299 Form 2, 2-(6-methyl-pyridin-2-yl)-3-(6-amido-quinolin-4-yl)-5,6-dihydro-4h-pyrrolo[1,2-b]pyrazole], in data set [1], the “water solubility” value is reported as “about 200 ug/mL” and the Solubility turned out to be 200 µg/mL (≈ 541 µM). In data set [2], the “weight change, isothermal sorption curve” value is 0.25% and the “hygroscopicity” value is on record as “slightly hygroscopic”.

Take `Cc1cccc(-c2nn3c(c2-c2ccnc4ccc(C(N)=O)cc24)CCC3)n1` [LY2157299 Form 3, 2-(6-methyl-pyridin-2-yl)-3-(6-amido-quinolin-4-yl)-5,6-dihydro-4h-pyrrolo[1,2-b]pyrazole]: in data set [1], the “water solubility” value is reported as “about 150 μg/mL” and the Solubility is 150 µg/mL (≈ 406 µM). In data set [2], the “hygroscopicity” value is “non-hygroscopic”. Besides, in data set [3], the “phase transformation on heating” value is “no phase transformation before melting”.

Consider `Cc1cccc(-c2nn3c(c2-c2ccnc4ccc(C(N)=O)cc24)CCC3)n1` [LY2157299 Form 4, 2-(6-methyl-pyridin-2-yl)-3-(6-amido-quinolin-4-yl)-5,6-dihydro-4h-pyrrolo[1,2-b]pyrazole], for which, in data set [1], the “water solubility” value is reported as “about 100 ug/mL” and the Solubility was found to be 100 µg/mL (≈ 271 µM). In addition, in data set [2], the “weight change, isothermal sorption curve” value was determined as 0.95% and the “hygroscopicity” value is “slightly hygroscopic”.

As to `Cc1cccc(-c2nn3c(c2-c2ccnc4ccc(C(N)=O)cc24)CCC3)n1` [LY2157299 Form 7, 2-(6-methyl-pyridin-2-yl)-3-(6-amido-quinolin-4-yl)-5,6-dihydro-4h-pyrrolo[1,2-b]pyrazole], in data set [1], the “water solubility” value was “about 100 μg/mL” and the Solubility was found to be 100 µg/mL (≈ 271 µM).

Regarding `Cc1cccc(-c2nn3c(c2-c2ccnc4ccc(C(N)=O)cc24)CCC3)n1` [LY2157299 Monohydrate, 2-(6-methyl-pyridin-2-yl)-3-(6-amido-quinolin-4-yl)-5,6-dihydro-4h-pyrrolo[1,2-b]pyrazole], the Solubility in data set [1] is <50 µg/mL. Besides, in data set [2], the “hygroscopicity” value is on record as “slightly hygroscopic”. In addition, the “dehydration and start of phase transition temperature” value in data set [3] (DSC) was found to be 133 °C. Also, the “phase transformation on heating” value in data set [3] was “dehydrates under temperature and its phase transformes; also recorded: dehydrates under temperature and has phase transformation”. Further, the “phase transition temperature lower than that of Form 2” value in data set [3] (DSC thermograms, difference to Form 2) worked out at 60 °C.
